What was measured:
[1] = molecular target: 5-hydroxytryptamine receptor 2B (Homo sapiens, UniProt P41595); format: cell membranes, CHO-K1, Membrane; also: in other assays of this panel Not Active means under 50% inhibition at 10 µM
Vasopressin V1a receptor = Vasopressin V1a receptor (Homo sapiens, UniProt P37288); format: cell membranes, Membrane; conditions: hek293; also: in other assays of this panel Not Active means under 50% inhibition at 10 µM
[2] = DRUGMATRIX: GABAA, Chloride Channel, TBOB radioligand binding (ligand: [3H] TBOB); format: cell membranes, Rattus norvegicus, Wistar, Cerebral cortex, Membrane; conditions: Not Active = under 50% inhibition at 10 µM
[3] = DRUGMATRIX: Glutamate, NMDA, Phencyclidine radioligand binding (ligand: [3H] TCP); format: cell membranes, Rattus norvegicus, Wistar, Cerebral cortex, Membrane; conditions: Not Active = under 50% inhibition at 10 µM
Glycine receptor = Glycine receptor (Rattus norvegicus, UniProt P22771+P24524+P07727+P20781); format: cell membranes, Wistar, Spinal cord, Membrane; also: in other assays of this panel Not Active means under 50% inhibition at 10 µM
[4] = molecular target: Platelet-activating factor receptor (Homo sapiens, UniProt P25105); format: tissue-based; also: in other assays of this panel Not Active means under 50% inhibition at 10 µM
Sequence of Platelet-activating factor receptor (P25105 whole entry): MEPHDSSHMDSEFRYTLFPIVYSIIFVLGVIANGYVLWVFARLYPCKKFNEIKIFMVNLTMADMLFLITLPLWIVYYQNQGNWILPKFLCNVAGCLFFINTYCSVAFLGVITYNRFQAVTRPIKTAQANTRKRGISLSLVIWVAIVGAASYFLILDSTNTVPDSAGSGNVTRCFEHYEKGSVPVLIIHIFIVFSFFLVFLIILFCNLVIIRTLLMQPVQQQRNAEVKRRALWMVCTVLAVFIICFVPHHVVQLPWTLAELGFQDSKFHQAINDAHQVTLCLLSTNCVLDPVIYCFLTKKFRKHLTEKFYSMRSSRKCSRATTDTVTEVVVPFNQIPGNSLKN

Interstitial collagenase = molecular target: T1, Interstitial collagenase (Homo sapiens, UniProt P03956); test: biochemical; format: tissue-based, Rheumatoid synovial fibroblasts
T1 sequence (P03956 whole entry): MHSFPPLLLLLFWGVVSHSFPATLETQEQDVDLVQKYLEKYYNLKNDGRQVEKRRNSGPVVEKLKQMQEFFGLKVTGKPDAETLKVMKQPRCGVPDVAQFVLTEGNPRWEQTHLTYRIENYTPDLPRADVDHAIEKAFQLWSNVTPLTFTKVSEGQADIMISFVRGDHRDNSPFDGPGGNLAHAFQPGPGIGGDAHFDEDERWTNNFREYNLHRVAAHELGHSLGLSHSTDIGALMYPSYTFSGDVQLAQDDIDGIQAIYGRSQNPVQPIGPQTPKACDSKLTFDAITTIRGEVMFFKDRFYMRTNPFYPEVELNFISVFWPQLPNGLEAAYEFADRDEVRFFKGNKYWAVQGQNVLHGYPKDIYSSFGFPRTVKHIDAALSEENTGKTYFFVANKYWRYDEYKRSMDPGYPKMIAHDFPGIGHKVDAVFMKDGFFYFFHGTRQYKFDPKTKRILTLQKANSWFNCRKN

Sequence of 5-hydroxytryptamine receptor 2B (P41595 whole entry): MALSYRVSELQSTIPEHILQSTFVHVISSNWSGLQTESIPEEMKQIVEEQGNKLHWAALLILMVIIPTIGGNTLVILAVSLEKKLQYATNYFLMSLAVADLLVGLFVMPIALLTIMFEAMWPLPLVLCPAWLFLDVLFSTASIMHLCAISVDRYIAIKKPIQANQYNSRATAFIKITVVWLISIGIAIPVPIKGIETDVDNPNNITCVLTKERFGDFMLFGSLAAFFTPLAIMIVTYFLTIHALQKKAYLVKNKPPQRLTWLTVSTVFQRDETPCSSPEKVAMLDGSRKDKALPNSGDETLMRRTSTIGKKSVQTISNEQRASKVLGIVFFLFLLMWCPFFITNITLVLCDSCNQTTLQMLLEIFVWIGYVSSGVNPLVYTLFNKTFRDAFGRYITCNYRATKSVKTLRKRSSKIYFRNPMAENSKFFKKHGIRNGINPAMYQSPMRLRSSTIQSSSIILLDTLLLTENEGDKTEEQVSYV
Sequence of Vasopressin V1a receptor (P37288 whole entry): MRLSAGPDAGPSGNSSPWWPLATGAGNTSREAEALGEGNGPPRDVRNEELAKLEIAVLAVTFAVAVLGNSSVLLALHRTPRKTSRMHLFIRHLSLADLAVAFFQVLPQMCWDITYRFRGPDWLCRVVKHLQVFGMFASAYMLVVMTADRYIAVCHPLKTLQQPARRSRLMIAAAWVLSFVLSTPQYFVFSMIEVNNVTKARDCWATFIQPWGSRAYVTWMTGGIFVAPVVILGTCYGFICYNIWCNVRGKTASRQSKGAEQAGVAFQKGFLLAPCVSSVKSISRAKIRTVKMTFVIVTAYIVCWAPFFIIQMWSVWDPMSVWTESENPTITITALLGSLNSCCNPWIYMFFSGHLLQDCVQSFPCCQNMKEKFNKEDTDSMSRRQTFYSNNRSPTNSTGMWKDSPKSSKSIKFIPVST

Structure (SMILES)	IC50 ([1]; cho-k1)	IC50 (Vasopressin V1a receptor)	IC50 [2]	Ki [2]	IC50 [3]	Ki [3]	IC50 (Glycine receptor)	IC50 [4]	IC50 (Interstitial collagenase)	IC50 ([1]; read-out: IC50)	Ki ([1]; read-out: Ki)	Ki ([1]; cho-k1)	Ki (Vasopressin V1a receptor)	Ki (Glycine receptor)	Ki [4]	Ki (Interstitial collagenase)	IC50 (Interstitial collagenase; read-out: IC50)
CC(C)CN(C[C@@H](O)[C@H](Cc1ccccc1)NC(=O)O[C@H]1CCOC1)S(=O)(=O)c1ccc(N)cc1	Not Active	Not Active	Not Active	Not Active	Not Active	Not Active	Not Active	Not Active	Not Active	–	–	–	–	–	–	–	–
c1ccc(Nc2ccc(Nc3ccccc3)cc2)cc1	–	Not Active	Not Active	Not Active	Not Active	Not Active	Not Active	Not Active	Not Active	142 nM	90 nM	–	–	–	–	–	–
COc1cc2c3cc1Oc1cc(ccc1O)C[C@@H]1c4c(cc(OC)c(O)c4Oc4ccc(cc4)C[C@@H]3N(C)CC2)CC[N+]1(C)C.[Cl-]	Not Active	Not Active	Not Active	Not Active	Not Active	Not Active	Not Active	Not Active	Not Active	–	–	–	–	–	–	–	–
NC(=O)N1c2ccccc2CCc2ccccc21	Not Active	Not Active	Not Active	Not Active	Not Active	Not Active	Not Active	Not Active	Not Active	–	–	–	–	–	–	–	–
O=C1CC[C@@H](N2C(=O)c3ccccc3C2=O)C(=O)N1	Not Active	Not Active	Not Active	Not Active	Not Active	Not Active	Not Active	Not Active	Not Active	–	–	–	–	–	–	–	–
Cc1onc(O)c1CC(N)C(=O)O (racemic) [(R,S)-AMPA]	Not Active	Not Active	Not Active	Not Active	Not Active	Not Active	Not Active	Not Active	Not Active	–	–	–	–	–	–	–	–
Cc1ccc2cc3c(ccc4ccccc43)c3c2c1CC3 [3-METHYLCHOLANTHRENE]	Not Active	Not Active	Not Active	Not Active	Not Active	Not Active	Not Active	Not Active	Not Active	–	–	–	–	–	–	–	–
CC[C@@]1(O)C[C@H](O[C@H]2C[C@H](N(C)C)[C@H](O[C@H]3C[C@H](O)[C@H](O[C@H]4CCC(=O)[C@H](C)O4)[C@H](C)O3)[C@H](C)O2)c2c(cc3c(c2O)C(=O)c2c(O)cccc2C3=O)[C@H]1C(=O)OC [ACLARUBICIN]	–	Not Active	Not Active	Not Active	Not Active	Not Active	Not Active	Not Active	Not Active	1110 nM	704 nM	–	–	–	–	–	–
Nc1nc2c(ncn2COCCO)c(=O)[nH]1 [ACYCLOVIR]	Not Active	Not Active	Not Active	Not Active	Not Active	Not Active	Not Active	Not Active	Not Active	–	–	–	–	–	–	–	–
Cc1c(C)c2c(c(C)c1O)CC[C@@](C)(CCC[C@H](C)CCC[C@H](C)CCCC(C)C)O2 [ALPHA-TOCOPHEROL]	Not Active	Not Active	Not Active	Not Active	Not Active	Not Active	Not Active	Not Active	Not Active	–	–	–	–	–	–	–	–
CN(C)c1nc(N(C)C)nc(N(C)C)n1 [ALTRETAMINE]	Not Active	Not Active	Not Active	Not Active	Not Active	Not Active	Not Active	Not Active	Not Active	–	–	–	–	–	–	–	–
Nc1c(Br)cc(Br)cc1CN[C@H]1CC[C@H](O)CC1 [AMBROXOL]	Not Active	Not Active	Not Active	Not Active	Not Active	Not Active	Not Active	Not Active	Not Active	–	–	–	–	–	–	–	–
NCCCCCC(=O)O [AMINOCAPROIC ACID]	Not Active	Not Active	Not Active	Not Active	Not Active	Not Active	Not Active	Not Active	Not Active	–	–	–	–	–	–	–	–
CCC1(c2ccc(N)cc2)CCC(=O)NC1=O (stereo not given) [AMINOGLUTETHIMIDE]	Not Active	Not Active	Not Active	Not Active	Not Active	Not Active	Not Active	Not Active	Not Active	–	–	–	–	–	–	–	–
Cc1ccc(/N=C/N(C)/C=N/c2ccc(C)cc2C)c(C)c1 [AMITRAZ]	Not Active	Not Active	Not Active	Not Active	Not Active	Not Active	Not Active	Not Active	Not Active	–	–	–	–	–	–	–	–
CCOC(=O)C1=C(COCCN)NC(C)=C(C(=O)OC)C1c1ccccc1Cl (stereo not given) [AMLODIPINE]	Not Active	Not Active	Not Active	Not Active	Not Active	Not Active	Not Active	Not Active	Not Active	–	–	–	–	–	–	–	–
COc1ccc(C[C@H]2NC[C@H](O)[C@H]2OC(C)=O)cc1 [ANISOMYCIN]	Not Active	Not Active	Not Active	Not Active	Not Active	Not Active	Not Active	Not Active	Not Active	–	–	Not Active	Not Active	Not Active	Not Active	Not Active	–
Nc1ncn([C@@H]2O[C@H](CO)[C@@H](O)[C@H]2O)c(=O)n1 [AZACITIDINE]	Not Active	Not Active	Not Active	Not Active	Not Active	Not Active	Not Active	Not Active	Not Active	–	–	–	–	–	–	–	–
CN(C)C(=O)Oc1cc(OC(=O)N(C)C)cc(C(O)CNC(C)(C)C)c1 (stereo not given) [BAMBUTEROL]	Not Active	Not Active	Not Active	Not Active	Not Active	Not Active	Not Active	Not Active	Not Active	–	–	–	–	–	–	–	–
CN(C)CCCN1c2ccccc2Sc2ccc(Cl)cc21 [CHLORPROMAZINE]	–	Not Active	Not Active	Not Active	Not Active	Not Active	Not Active	Not Active	Not Active	–	–	–	–	–	–	–	–
COc1cc2nc(N3CCN(C(=O)C4COc5ccccc5O4)CC3)nc(N)c2cc1OC (stereo not given) [DOXAZOSIN]	–	Not Active	Not Active	Not Active	Not Active	Not Active	Not Active	Not Active	–	–	–	–	–	–	–	–	5750 nM
C[C@]12CC[C@@H]3c4ccc(O)cc4CC[C@H]3[C@@H]1CCC2=O [ESTRONE]	–	Not Active	Not Active	Not Active	Not Active	Not Active	Not Active	Not Active	Not Active	–	–	–	–	–	–	–	–
Cc1ccc(N(CC2=NCCN2)c2cccc(O)c2)cc1 [PHENTOLAMINE]	–	Not Active	Not Active	Not Active	Not Active	Not Active	Not Active	Not Active	Not Active	–	–	–	–	–	–	–	–

Source: ChEMBL document CHEMBL1909046, “DrugMatrix in vitro pharmacology data”
